Patent US20100003217A1, “Compounds and Pharmaceutical Compositions for the Treatment of Viral Infections” (priority 2008, published 2010)

Key:
[1] = test system: HCV genotype 1b replicon (Zluc cells); assay: HCV luciferase replicon assay; type: cell-based, hepatitis C virus; settings: Hepatitis C virus, 72 h, 3 days
Description: The HCV luciferase replicon assay measures the ability of a test compound to inhibit HCV replication in cell culture after 3 days of treatment in a human hepatoma cell line (Huh-7) bearing the HCV genotype 1b replicon and a luciferase-neomycin phosphotransferase fusion gene. The inhibition of HCV replication was measured by quantification of luciferase protein expression. The HCV luciferase replicon was constructed by fusing a luciferase gene to the amino terminus of the neomycin phosphotransferase gene of the ZS11 HCV replicon. The ZS11 HCV replicon (Zhu Q, Guo J-T, and Seeger C, 2003) is derived from the SP1 replicon, but contains three cell culture-adapted mutations: E1202G (NS3), S22041 (NS5A), and D2254E (NS5A). These mutations allow for efficient in vitro replication. The luciferase reporter gene was amplified from the pGL4.13[luc2/SV40] vector (Promega Corp.). The replicon resulting from the luciferase-neomycin fusion (ZS11-luc) was stably-transfected into Huh-7 cells, yielding the Zluc cell line.
The luciferase replicon assay is summarized as follows: Solid white 96-well tissue culture plates (BD Falcon) were seeded with Zluc cells. Antiviral compound solutions were made up freshly in medium as 2×-concentrated stocks. Eight additional 3-fold drug dilutions were prepared from these stocks in medium for a total of 9 dilutions. At least four hours after Zluc cells were seeded, drug treatment was initiated by adding one volume of each 2×-concentrated drug dilution to one volume of cells/medium in the tissue culture plates. Cells were then incubated for 3 days at 37° C./5% CO2.
The media/compound was then removed from the plates and the ONE-glo Luciferase assay reagent (Promega) was added to each well. The assay plates were shaken for 3 minutes at room temperature and luciferase activity for each well was measured with a 1 sec read time on the Victor^3V multilabel counter using a 700 nm cut-off filter (Perkin Elmer). EC50 values were calculated from dose response curves from the resulting best-fit equations determined by Microsoft Excel and XLfit 4.1 software.

CYP2C9 = CYP2C9 (Homo sapiens, UniProt P11712); assay: Incubation with human recombinant CYP450 supersomes, 2C9; type: in vitro ADME; settings: CYP450 2C9 supersomes, 60 min, 10 μM, average of two experiments
Description: Supersomes—Incubations were conducted in a final volume of 0.1 mL reaction buffer (50-100 mM potassium phosphate, pH 7.4 or 100 mM Tris-HCL, pH 7.4) according to protocol provided with each CYP450 supersome. Each reaction contained […] of CYP450 supersome, 1.3 mM NADP^+, 3.3 mM glucose-6-phosphate, 0.4 U/mL glucose-6-phosphate dehydrogenase, 3.3 mM MgCl2 and 10 μM Compound 1. Following incubation for 60 min at 37° C., 100 μL of stop solution (acetonitrile:methanol; 1:1) was added and samples centrifuged for 10 min at 10,000×g. The supernatant was then dried and reconstituted in 10 mM potassium phosphate, pH 5, further transferred to an HPLC glass vial and analyzed by HPLC-UV (described above).

[2] = Rat plasma pharmacokinetics of total radioactivity after [^14C]-Compound 1; type: in vivo, male Sprague-Dawley rats
Description: A preliminary rat metabolism study was conducted with radiolabeled Compound 1. The compound was labeled with [^14C] in the C-8 position of the guanine moiety. The objectives of the study were to determine, 1) the plasma pharmacokinetics of total radioactivity, 2) the time-course of total radioactivity and the amount of 2′-C-methyl guanosine-5′-TP in liver, 3) the major route of excretion, and 4) the metabolic profile in excreta, liver, and plasma.
(§1) Isotopically diluted [^14C]-Compound 1 was administered intravenously to male Sprague-Dawley rats at 50 mg/kg or by oral gavage at 100 mg/kg.
The plasma concentration-time data for total radioactivity was analyzed using Microsoft® Office Excel 2003 to obtain the area under the concentration-time curve (AUC). AUC0-24 (area under the concentration-time curve from 0 to 24 h after dosing) was calculated using the linear trapezoidal rule and nominal sampling times. For the IV dose group, concentration at time zero was extrapolated from the concentration data for the first two time points. The maximum (peak) plasma concentrations (Cmax) and the time to peak concentrations (tmax) were the observed values. Descriptive statistics were prepared in Excel.
Radioanalyses of plasma samples were conducted. The plasma concentration data for total radioactivity expressed as μg equivalents/mL are summarized below: […]

[3] = Total radioactivity in rat liver after [^14C]-Compound 1; type: in vivo, male Sprague-Dawley rats
Description: as §1
Liver samples were collected at 2, 6 and 24 h postdose from the animals of both the IV and the PO dose groups. The samples were flash frozen after excision and kept on dry ice during homogenization. The homogenization was conducted on dry ice in 70% methanol-30% water containing 20 mM EDTA and 20 mM EGTA (about 1× (w/v) weight of the liver). Triplicate weighed aliquots (about 500 mg) were combusted in the Packard Sample Oxidizer and followed by LSC analysis to determine radioactivity […]). The average data for levels of total radioactivity in liver are summarized below.

GS4.1 cells = assay: Cytotoxicity of Compound 1 and RBV on GS4.1 cells using MTS assay (combination study); settings: three days, 0.6× to 1.5× EC50, alone or in combination
Description: The readout of the assay was measured by the bioreduction of the yellow MTS tetrazolium compound to a purple formazan product. This conversion is mediated by NADPH or NADH in metabolically active cells and is therefore directly proportional to the number of live cells in a culture. Plates were setup as described above.
Cells were plated and treated with inhibitors using the drug matrix described above.
After three days of drug treatment, 20 μL of MTS was added to each well, and then plates were incubated at 37° C./5% CO2.

[4] = Cytotoxicity (MTS assay), 184R-A cells; type: cell-based; settings: human, 184R-A cells (S282T), 184R-A (S282T), N = 3
Description: Cells were plated and treated with inhibitors as described above.

[5] = Group 1A: IV 50 mg/kg, 2 h postdose
[6] = Group 1B: IV 50 mg/kg, 6 h postdose
[7] = Group 1C: IV 50 mg/kg, 24 h postdose
[8] = Group 2A: PO 100 mg/kg, 2 h postdose
[9] = Group 2B: PO 100 mg/kg, 6 h postdose
[10] = Group 2C: PO 100 mg/kg, 24 h postdose

Chain of CYP2C9 (P11712 whole entry): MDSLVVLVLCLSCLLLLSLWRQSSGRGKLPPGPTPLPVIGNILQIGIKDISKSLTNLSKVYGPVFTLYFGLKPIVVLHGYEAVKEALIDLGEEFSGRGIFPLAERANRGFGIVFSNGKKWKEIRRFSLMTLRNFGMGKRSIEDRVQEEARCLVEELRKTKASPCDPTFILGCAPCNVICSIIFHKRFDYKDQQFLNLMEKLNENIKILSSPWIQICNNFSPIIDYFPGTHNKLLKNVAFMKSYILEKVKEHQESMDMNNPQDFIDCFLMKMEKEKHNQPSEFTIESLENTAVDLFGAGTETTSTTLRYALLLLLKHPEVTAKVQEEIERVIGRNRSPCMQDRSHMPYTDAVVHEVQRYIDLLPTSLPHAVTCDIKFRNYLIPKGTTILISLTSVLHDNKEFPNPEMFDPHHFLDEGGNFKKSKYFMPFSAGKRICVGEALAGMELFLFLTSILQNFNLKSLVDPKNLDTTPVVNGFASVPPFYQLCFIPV

**Q.** What does the source list for `CC(C)(CO)C(=O)SCCOP(=O)(NCc1ccccc1)OC[C@H]1O[C@@H](n2cnc3c(=O)[nH]c(N)nc32)[C@](C)(O)[C@@H]1O` (mixture of isomers) [Compound 1, 3-hydroxy-2,2-dimethyl-thiopropionic acid S-(2-{[(2R,3R,4R,5R)-5-(2-amino-6-oxo-1,6-dihydro-purin-9-yl)-3,4-dihydroxy-4-methyl-tetrahydro-furan-2-ylmethoxy]-benzylamino-phosphoryloxy}-ethyl) ester]?
**A.** EC50 [1]: 68 ± 0.4 nM; % Residual Compound 1 (CYP2C9): 109%; AUC0-24 of plasma total radioactivity ([2]; IV 50 mg/kg [^14C]-Compound 1): 36.0 hr.μg equivalent/mL; AUC0-24 of plasma total radioactivity ([2]; PO 100 mg/kg [^14C]-Compound 1): 15.4 hr.μg equivalent/mL; Concentration of total radioactivity in liver as μg equivalents/gram [3, 5]: 206 ± 24 μg equivalents/gram; Total radioactivity in liver as % AD [3, 5]: 15.5 ± 0.7 % AD; Concentration of total radioactivity in liver as μg equivalents/gram [3, 6]: 137 ± 12 μg equivalents/gram; Total radioactivity in liver as % AD [3, 6]: 10.1 ± 1.0 % AD; Concentration of total radioactivity in liver as μg equivalents/gram [3, 7]: 23.2 ± 3.1 μg equivalents/gram; Total radioactivity in liver as % AD [3, 7]: 1.76 ± 0.11 % AD; Concentration of total radioactivity in liver as μg equivalents/gram [3, 8]: 5.09 ± 0.78 μg equivalents/gram; Total radioactivity in liver as % AD [3, 8]: 0.20 ± 0.04 % AD; Concentration of total radioactivity in liver as μg equivalents/gram [3, 9]: 10.3 ± 1.2 μg equivalents/gram; Total radioactivity in liver as % AD [3, 9]: 0.37 ± 0.05 % AD; Concentration of total radioactivity in liver as μg equivalents/gram [3, 10]: 4.08 ± 1.10 μg equivalents/gram; Total radioactivity in liver as % AD [3, 10]: 0.17 ± 0.03 % AD; total radioactivity in liver, % of the administered dose ([3]; IV [^14C]Compound 1, 2 h): 16%; total radioactivity in liver, % of the administered dose ([3]; IV [^14C]Compound 1, 6 h): 10%; total radioactivity in liver, % of the administered dose ([3]; IV [^14C]Compound 1, 24 h): 1.8%; total radioactivity in liver ([3]; IV, 2 h): 206 μg equivalents of Compound 1/g of liver; total radioactivity in liver ([3]; IV, 6 h): 137 μg equivalents of Compound 1/g of liver; total radioactivity in liver ([3]; IV, 24 h): 23 μg equivalents of Compound 1/g of liver; total radioactivity in liver ([3]; oral administration, 2 h): 5 μg equivalents of Compound 1/g of liver; total radioactivity in liver, % of the dose ([3]; oral administration, 2 h): 0.2%; total radioactivity in liver ([3]; oral administration, 6 h): 10 μg equivalents of Compound 1/g of liver; total radioactivity in liver, % of the dose ([3]; oral administration, 6 h): 0.4%; total radioactivity in liver ([3]; oral administration, 24 h): 4 μg equivalents of Compound 1/g of liver; total radioactivity in liver, % of the dose ([3]; oral administration, 24 h): 0.2%; in vitro cytotoxicity (MTS) (GS4.1 cells): no evidence of in vitro cytotoxicity; CC50 at 3 days [4]: > 100000 nM
